Source: US20180200257A1, “METHODS FOR THE TREATMENT OF INFLAMMATORY DISORDERS” (Galapagos NV, priority 2015, published 2018)

Test system: Subjects With Active Crohn's Disease With Evidence of Mucosal Ulceration
Experiment: Study 3 - SES-CD endoscopic scores
Assay type: in vivo, human
Settings: 200 mg, LOCF; for Deep remission (CDAI score < 150 points, SES-CD score ≤ 4, ulcerated subscore ≤ 1 in all 5 segments) / Endoscopic remission (SES-CD % improvement ≤ 4, ulcerated subscore ≤ 1 in all 5 segments) / Endoscopic response (SES-CD % improvement ≥ 50) / Mucosal healing (SES-CD % = 0): 10 weeks
Description: Double-Blind, Randomized, Placebo-Controlled, Multi-Centre Study to Investigate the Efficacy and Safety of Compound 1 in Subjects With Active Crohn's Disease With Evidence of Mucosal Ulceration. This is a double-blind, randomized, placebo-controlled, multi-centre Phase 2 study to investigate the efficacy and safety of Compound 1 administered once daily for the treatment of active CD with evidence of mucosal ulceration. The pharmacokinetics (including a PK substudy) and pharmacodynamics of Compound 1 and metabolite in CD will also be characterised. A total of 180 eligible subjects will be randomized to receive Compound 1 or placebo in addition to their stable background treatment (eg, corticosteroids, aminosalicylates, or CD-related antibiotics). The study will consist of 2 parts, with total treatment duration of 20 weeks. Randomization in Part 1 will be stratified according the subject's previous anti-TNF exposure/response, CRP level at Screening, and oral corticosteroid use at visit Day −1. After the first 10 weeks of treatment in Part 1, patients will be re-randomized for Part 2 as shown in the diagram below and will be stratified according to the subject's clinical response, previous anti-TNF exposure/response, and oral corticosteroid use at visit Day -1. [table] For the evaluation of disease severity the Crohn's Disease Index of Severity (CDEIS), and the Simple Endoscopic Score for Crohn's Disease (SES-CD) may be used. These are validated scores for the measurement of endoscopic findings, (Sipponen et al, 2010). For the SES-CD, four endoscopic variables in the five segments are scored from 0-3: Variable “presence and size of ulcers” is scored 0 when no ulcers are present, small ulcers (diameter 0.1-0.5 cm) are scored 1, medium-sized ulcers (diameter 0.5-2 cm) 2, and large ulcers (>2 cm) 3. Variable “extent of ulcerated surface” is scored 0 when no ulcers were present, 1 when extent was <10%, 2 when extent is 10%-30%, and 3 when it is >30%. The variable extent of affected surface is scored 0 if none, 1 when <50%, 2 when 50%-75%, and 3 when >75%. The presence and type of narrowings is scored 0 when no narrowings are present, a single passable narrowing is scored 1, multiple passable narrowings are scored 2, and a nonpassable narrowing is scored 3.

[1] = Anti-TNF experienced non-responders
[2] = baseline corticosteroid use: with steroids
[3] = baseline corticosteroid use: without steroids

How did the “Deep remission (CDAI score < 150 points, SES-CD score ≤ 4, ulcerated subscore ≤ 1 in all 5 segments)” value (“Deep remission” below) (Anti-TNF Naïve) turn out when O=C(Nc1nc2cccc(-c3ccc(CN4CCS(=O)(=O)CC4)cc3)n2n1)C1CC1 [Compound 1, cyclopropanecarboxylic acid {5-[4-(1,1-dioxo-thiomorpholin-4-ylmethyl)-phenyl]-[1,2,4]triazolo[1,5-a]pyridin-2-yl}-amide] was run?
The value was 0%.

And the “Endoscopic remission (SES-CD % improvement ≤ 4, ulcerated subscore ≤ 1 in all 5 segments)” value (Anti-TNF Naïve)?
The value was 16%.

And the “Endoscopic response (SES-CD % improvement ≥ 50)” value (Anti-TNF Naïve)?
The value was 28%.

And the “Mucosal healing (SES-CD % = 0)” value (Anti-TNF Naïve)?
The value was 0%.

What about the “Deep remission” value [1] of the same compound?
The value was 6%.

What about the “Endoscopic remission (SES-CD % improvement ≤ 4, ulcerated subscore ≤ 1 in all 5 segments)” value [1] of the same compound?
The value was 12%.

What about the “Endoscopic response (SES-CD % improvement ≥ 50)” value [1] of the same compound?
Its value is 23%.

And the “Mucosal healing (SES-CD % = 0)” value [1]?
Its value is 1%.

And the “Deep remission” value [2]?
The value was 0%.

What about the “Endoscopic remission (SES-CD % improvement ≤ 4, ulcerated subscore ≤ 1 in all 5 segments)” value [2] of the same compound?
The value was 12%.

What about the “Endoscopic response (SES-CD % improvement ≥ 50)” value [2] of the same compound?
The value was 22%.

What about the “Mucosal healing (SES-CD % = 0)” value [2] of the same compound?
The value was 0%.

And the “Deep remission” value [3]?
Its value is 5%.

What about the “Endoscopic remission (SES-CD % improvement ≤ 4, ulcerated subscore ≤ 1 in all 5 segments)” value [3] of the same compound?
The value was 15%.

What about the “Endoscopic response (SES-CD % improvement ≥ 50)” value [3] of the same compound?
Its value is 28%.

And the “Mucosal healing (SES-CD % = 0)” value [3]?
The value was 5%.

And the “Deep remission” value (overall)?
The value was 8%.

What about the “Endoscopic remission (SES-CD % improvement ≤ 4, ulcerated subscore ≤ 1 in all 5 segments)” value (overall) of the same compound?
The value was 14%.

And the “Endoscopic response (SES-CD % improvement ≥ 50)” value (overall)?
Its value is 25%.

What about the “Mucosal healing (SES-CD % = 0)” value (overall) of the same compound?
The value was 2%.

What about the “Deep remission” value (screening CRP ≤ 10 ml/L) of the same compound?
The value was 10%.

What about the “Endoscopic remission (SES-CD % improvement ≤ 4, ulcerated subscore ≤ 1 in all 5 segments)” value (screening CRP ≤ 10 ml/L) of the same compound?
Its value is 16%.

And the “Endoscopic response (SES-CD % improvement ≥ 50)” value (screening CRP ≤ 10 ml/L)?
Its value is 23%.

What about the “Mucosal healing (SES-CD % = 0)” value (screening CRP ≤ 10 ml/L) of the same compound?
The value was 3%.

What about the “Deep remission” value (screening CRP ≥ 10 mg/L) of the same compound?
Its value is 0%.

And the “Endoscopic remission (SES-CD % improvement ≤ 4, ulcerated subscore ≤ 1 in all 5 segments)” value (screening CRP ≥ 10 mg/L)?
The value was 0%.

And the “Endoscopic response (SES-CD % improvement ≥ 50)” value (screening CRP ≥ 10 mg/L)?
The value was 28%.

What about the “Mucosal healing (SES-CD % = 0)” value (screening CRP ≥ 10 mg/L) of the same compound?
Its value is 0%.

And the “SES-CD mean, baseline” value (Baseline)?
The value was 14.2.

What about the “SES-CD mean CFB, W 10” value (week 10) of the same compound?
Its value is −2.6.

What about the “SES-CD mean, W 10” value (week 10) of the same compound?
The value was 11.6.
